The values below come from ChEMBL document CHEMBL1201862, “PubChem BioAssay data set” (2004).

As usually defined, the Ki is a measure of affinity in units of concentration, obtained from inhibition or displacement. By IC50 is commonly meant the point on the concentration scale where inhibition reaches its midpoint.

Activity calls are given as the source filed them.

The target in assay [1] is Leucine-rich repeat serine/threonine-protein kinase 2 (Homo sapiens, UniProt Q5S007). The class given is functional.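 Note: value from a broad kinome-wide panel profiling study in which LRRK2 was one of the kinases tested.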
Chain of Leucine-rich repeat serine/threonine-protein kinase 2 (Q5S007 whole entry): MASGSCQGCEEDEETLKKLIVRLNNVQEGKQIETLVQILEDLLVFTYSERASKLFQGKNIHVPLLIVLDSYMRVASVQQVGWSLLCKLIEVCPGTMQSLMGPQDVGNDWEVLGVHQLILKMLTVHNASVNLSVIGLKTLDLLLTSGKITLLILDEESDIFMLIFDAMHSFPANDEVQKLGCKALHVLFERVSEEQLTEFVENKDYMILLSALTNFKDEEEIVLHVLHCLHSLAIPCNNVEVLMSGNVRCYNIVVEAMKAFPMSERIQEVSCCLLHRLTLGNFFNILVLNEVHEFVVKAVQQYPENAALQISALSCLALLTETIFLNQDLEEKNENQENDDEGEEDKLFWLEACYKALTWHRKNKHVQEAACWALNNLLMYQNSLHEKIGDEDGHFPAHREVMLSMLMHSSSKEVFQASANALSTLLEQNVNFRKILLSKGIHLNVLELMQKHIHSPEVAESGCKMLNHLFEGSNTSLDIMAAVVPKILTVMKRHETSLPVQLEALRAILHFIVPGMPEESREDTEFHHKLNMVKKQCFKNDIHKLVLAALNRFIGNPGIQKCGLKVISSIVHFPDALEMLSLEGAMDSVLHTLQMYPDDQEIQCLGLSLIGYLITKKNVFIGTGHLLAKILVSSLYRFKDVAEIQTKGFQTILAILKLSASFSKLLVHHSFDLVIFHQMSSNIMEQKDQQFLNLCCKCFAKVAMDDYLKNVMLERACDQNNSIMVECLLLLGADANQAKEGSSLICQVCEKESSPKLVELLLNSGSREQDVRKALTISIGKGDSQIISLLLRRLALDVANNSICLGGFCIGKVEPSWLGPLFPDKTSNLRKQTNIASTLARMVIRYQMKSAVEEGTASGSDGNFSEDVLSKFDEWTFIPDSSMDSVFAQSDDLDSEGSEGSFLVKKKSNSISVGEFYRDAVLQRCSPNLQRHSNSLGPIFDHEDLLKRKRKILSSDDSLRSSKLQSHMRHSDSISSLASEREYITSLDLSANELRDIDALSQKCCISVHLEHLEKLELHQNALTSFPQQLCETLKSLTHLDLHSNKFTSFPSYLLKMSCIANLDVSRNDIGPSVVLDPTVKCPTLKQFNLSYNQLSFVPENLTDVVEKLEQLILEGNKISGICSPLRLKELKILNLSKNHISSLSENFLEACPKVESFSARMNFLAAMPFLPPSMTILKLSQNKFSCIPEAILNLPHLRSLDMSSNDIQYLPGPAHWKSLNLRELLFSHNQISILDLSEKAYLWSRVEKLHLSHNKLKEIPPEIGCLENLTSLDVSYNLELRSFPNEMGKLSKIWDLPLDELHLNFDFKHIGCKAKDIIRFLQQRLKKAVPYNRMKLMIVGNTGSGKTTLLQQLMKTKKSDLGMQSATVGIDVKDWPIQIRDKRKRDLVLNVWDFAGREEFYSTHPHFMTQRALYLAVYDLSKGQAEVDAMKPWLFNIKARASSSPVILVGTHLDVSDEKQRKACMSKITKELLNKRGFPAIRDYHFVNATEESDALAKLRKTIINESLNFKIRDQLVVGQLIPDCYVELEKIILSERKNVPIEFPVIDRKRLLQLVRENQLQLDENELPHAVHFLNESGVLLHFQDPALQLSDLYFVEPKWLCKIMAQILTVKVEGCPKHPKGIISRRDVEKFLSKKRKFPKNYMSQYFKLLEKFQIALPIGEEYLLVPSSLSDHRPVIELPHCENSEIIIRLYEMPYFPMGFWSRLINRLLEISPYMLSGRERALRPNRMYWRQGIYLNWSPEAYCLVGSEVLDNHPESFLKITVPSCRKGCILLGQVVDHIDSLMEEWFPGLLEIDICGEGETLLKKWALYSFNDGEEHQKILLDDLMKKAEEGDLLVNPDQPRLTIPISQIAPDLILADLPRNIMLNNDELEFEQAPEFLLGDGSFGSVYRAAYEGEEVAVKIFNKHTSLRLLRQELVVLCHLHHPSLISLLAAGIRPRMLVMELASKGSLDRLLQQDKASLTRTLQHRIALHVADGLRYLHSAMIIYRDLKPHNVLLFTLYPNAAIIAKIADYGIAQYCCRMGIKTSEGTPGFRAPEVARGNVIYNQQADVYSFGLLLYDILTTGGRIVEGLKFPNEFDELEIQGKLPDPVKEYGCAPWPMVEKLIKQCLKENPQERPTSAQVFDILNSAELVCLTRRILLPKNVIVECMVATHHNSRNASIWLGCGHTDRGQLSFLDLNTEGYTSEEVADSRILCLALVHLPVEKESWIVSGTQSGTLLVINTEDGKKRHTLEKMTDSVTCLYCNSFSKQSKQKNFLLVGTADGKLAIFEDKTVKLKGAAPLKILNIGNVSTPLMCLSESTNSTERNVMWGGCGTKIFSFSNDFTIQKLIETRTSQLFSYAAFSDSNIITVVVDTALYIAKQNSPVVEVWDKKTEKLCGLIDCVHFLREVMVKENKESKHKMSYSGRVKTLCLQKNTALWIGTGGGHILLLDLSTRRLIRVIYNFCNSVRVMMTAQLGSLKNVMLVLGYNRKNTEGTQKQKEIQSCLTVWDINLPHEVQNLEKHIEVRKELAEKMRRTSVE
Assay [2] concerns the target Mitogen-activated protein kinase kinase kinase 20 (Homo sapiens, UniProt Q9NYL2). The class given is functional.
In assay [3] the target is Serine/threonine-protein kinase pim-1 (Homo sapiens, UniProt P11309). The class given is functional.
Chain of Serine/threonine-protein kinase pim-1 (P11309 whole entry): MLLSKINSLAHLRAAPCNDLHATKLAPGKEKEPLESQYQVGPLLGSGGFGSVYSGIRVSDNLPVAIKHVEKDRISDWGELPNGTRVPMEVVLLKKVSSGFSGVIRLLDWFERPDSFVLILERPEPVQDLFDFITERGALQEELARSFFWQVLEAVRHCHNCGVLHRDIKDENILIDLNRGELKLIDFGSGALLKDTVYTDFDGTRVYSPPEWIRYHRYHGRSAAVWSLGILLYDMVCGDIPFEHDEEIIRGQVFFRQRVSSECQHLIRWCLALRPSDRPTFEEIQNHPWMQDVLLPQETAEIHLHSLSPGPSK
The target in assay [4] is Calcium/calmodulin-dependent protein kinase type 1 (Homo sapiens, UniProt Q14012). The class given is functional.
Chain of Calcium/calmodulin-dependent protein kinase type 1 (Q14012 whole entry): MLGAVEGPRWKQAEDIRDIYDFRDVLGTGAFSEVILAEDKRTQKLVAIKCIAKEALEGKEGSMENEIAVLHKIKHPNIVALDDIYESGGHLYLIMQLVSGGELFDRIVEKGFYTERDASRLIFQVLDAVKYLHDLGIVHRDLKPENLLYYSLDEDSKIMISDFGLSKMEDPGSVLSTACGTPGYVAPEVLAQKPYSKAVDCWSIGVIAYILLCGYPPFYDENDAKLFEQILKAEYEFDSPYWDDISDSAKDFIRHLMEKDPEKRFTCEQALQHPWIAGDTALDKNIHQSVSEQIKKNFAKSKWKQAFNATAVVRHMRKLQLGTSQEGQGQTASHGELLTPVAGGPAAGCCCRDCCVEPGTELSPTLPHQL
For a further assay, the target named is T1, Exodeoxyribonuclease V (Escherichia coli (strain K12), UniProt P04993+P07648+P08394).
T1 sequence (P04993 whole entry): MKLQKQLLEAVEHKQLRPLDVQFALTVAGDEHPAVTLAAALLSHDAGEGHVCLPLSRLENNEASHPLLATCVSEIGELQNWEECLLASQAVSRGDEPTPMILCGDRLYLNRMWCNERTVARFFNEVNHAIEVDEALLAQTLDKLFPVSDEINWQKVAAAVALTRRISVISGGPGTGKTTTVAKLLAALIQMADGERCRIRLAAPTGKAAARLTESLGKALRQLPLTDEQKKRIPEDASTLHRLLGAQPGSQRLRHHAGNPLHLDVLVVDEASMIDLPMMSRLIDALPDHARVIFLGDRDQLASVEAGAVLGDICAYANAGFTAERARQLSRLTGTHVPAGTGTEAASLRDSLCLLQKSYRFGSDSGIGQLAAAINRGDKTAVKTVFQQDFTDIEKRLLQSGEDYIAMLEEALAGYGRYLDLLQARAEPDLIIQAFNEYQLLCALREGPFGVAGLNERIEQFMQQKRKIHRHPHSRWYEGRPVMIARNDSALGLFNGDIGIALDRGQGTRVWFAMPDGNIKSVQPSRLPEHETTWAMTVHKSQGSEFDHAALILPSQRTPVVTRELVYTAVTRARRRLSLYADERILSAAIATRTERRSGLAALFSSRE
T1 sequence (P07648 whole entry): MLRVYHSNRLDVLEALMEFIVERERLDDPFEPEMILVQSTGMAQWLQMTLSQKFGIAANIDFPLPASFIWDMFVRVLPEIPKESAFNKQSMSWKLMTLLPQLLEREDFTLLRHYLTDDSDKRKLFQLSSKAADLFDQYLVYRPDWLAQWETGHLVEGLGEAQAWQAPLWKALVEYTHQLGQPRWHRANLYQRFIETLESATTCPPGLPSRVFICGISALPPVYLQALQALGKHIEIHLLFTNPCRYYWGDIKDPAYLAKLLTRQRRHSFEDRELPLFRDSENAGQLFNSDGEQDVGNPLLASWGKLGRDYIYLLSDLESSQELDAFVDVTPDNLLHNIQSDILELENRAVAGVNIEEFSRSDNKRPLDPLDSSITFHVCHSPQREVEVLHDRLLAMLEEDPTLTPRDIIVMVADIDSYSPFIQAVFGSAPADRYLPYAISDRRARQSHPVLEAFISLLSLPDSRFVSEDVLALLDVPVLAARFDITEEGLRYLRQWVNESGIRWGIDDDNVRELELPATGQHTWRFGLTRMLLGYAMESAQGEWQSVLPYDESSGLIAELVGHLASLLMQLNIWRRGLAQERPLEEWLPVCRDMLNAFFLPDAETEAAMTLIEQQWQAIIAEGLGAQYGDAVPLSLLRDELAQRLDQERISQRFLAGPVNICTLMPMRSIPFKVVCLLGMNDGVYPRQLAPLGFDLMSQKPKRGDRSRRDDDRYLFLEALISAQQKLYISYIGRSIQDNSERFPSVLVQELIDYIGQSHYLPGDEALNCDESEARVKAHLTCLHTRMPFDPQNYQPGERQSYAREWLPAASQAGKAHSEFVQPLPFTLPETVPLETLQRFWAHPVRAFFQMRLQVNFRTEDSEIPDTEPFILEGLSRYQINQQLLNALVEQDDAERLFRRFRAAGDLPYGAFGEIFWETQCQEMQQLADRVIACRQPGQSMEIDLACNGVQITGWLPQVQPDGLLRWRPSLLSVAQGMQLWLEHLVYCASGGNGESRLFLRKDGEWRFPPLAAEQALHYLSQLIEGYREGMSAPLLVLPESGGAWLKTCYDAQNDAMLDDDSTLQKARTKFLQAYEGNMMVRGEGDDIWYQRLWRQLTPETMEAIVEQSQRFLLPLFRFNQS
T1 sequence (P08394 whole entry): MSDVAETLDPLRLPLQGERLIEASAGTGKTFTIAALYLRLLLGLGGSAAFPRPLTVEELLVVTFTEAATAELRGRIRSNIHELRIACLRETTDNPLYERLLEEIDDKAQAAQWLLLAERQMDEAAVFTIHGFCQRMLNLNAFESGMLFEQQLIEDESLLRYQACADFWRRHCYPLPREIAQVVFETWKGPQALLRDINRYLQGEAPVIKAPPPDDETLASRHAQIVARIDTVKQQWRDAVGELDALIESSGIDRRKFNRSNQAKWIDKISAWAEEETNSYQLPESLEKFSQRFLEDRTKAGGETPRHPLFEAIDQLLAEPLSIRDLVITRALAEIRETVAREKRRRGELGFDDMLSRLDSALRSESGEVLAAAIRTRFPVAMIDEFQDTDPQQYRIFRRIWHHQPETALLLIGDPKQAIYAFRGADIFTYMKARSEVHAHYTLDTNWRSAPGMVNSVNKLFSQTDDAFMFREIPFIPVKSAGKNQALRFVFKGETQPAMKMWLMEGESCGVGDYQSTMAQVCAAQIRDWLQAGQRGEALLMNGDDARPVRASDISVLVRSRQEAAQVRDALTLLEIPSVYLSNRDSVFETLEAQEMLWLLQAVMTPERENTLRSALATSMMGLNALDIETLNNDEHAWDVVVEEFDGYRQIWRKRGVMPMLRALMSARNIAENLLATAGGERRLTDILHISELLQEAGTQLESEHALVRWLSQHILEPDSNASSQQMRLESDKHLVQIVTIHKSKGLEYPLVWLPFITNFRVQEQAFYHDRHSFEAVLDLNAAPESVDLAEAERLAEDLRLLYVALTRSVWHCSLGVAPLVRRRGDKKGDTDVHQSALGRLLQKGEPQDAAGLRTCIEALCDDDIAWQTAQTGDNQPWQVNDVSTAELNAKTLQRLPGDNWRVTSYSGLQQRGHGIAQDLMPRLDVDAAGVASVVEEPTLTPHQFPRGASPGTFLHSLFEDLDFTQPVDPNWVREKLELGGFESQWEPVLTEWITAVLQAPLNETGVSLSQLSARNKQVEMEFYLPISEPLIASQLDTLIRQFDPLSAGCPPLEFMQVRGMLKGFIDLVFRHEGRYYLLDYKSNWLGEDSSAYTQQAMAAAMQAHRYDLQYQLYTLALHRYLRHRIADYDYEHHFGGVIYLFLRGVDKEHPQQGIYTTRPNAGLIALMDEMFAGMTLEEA
In words: RecBCD inhibition via phage-restricted bacterial growth – absorbance, V66 E. coli, mutant T4 phage, counter-screen for AddAB inhibitor project, dose response (AID 492957). The class given is functional, cell-based, Escherichia coli str. K-12 substr. MG1655. Background: The purpose of a counterscreen is to sort out artefacts and off-target activity.

Chain of Mitogen-activated protein kinase kinase kinase 20 (Q9NYL2 whole entry): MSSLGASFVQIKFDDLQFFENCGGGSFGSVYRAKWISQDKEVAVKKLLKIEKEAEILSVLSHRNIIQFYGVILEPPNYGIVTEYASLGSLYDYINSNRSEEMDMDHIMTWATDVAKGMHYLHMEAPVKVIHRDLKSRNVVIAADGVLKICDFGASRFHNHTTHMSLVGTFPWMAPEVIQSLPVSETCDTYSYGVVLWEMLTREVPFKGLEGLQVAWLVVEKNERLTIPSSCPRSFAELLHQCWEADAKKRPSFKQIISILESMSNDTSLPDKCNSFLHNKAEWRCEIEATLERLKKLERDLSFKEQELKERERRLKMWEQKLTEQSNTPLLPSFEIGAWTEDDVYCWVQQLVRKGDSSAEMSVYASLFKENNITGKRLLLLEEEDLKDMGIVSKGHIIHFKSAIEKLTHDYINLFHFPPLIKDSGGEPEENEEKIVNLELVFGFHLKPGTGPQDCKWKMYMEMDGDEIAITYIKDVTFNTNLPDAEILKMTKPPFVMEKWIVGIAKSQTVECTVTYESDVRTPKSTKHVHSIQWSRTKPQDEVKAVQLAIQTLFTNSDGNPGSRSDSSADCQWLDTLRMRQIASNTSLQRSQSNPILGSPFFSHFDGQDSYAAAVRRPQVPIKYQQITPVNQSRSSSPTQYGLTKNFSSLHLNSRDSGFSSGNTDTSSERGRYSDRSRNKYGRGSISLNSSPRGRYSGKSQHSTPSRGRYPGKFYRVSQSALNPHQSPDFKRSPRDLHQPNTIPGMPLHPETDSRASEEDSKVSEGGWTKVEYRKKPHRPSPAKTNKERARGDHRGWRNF

For the compound `OC1CCC(Nc2cc(Cl)nc(-c3c[nH]c4ncccc34)n2)CC1` (stereo not given), the Ki was 0.0316 µM (active) in assay [1], > 7.94 µM (inactive) in assay [2], 1 µM (active) in assay [3] and > 1.58 µM (inactive) in assay [4].

On to `COCC/N=c1\scc(-c2cccs2)n1/N=C/c1ccc(O)c(O)c1O`, for which the IC50 at Exodeoxyribonuclease V was > 119 µM (inactive).
